From patent publication US10654808B2, “Tyrosine kinase inhibitor and pharmaceutical composition comprising same” (GUANGDONG RAYNOVENT BIOTECH CO., LTD., priority 2015, dated 2020)
pIC50: −log10 of the molar value.

Assays:
Assay type in all cases: biochemical
PDGFRB = biological target: T1, PDGFRB (Homo sapiens, UniProt P09619); experiment: Z'-LYTE in vitro enzyme activity assay, PDGFRB; conditions: 100 μM ATP, 60 minutes, room temperature; read-out: IC50 detected by Z'-LYTE, PDGFRB
T1 construct: purchased Millipore
Description: (§1) The enzyme activity was measured by Z′-LYTE™ Detection Kinase Assay. The IC50 value of the compounds was used as an index to evaluate the inhibitory effect of the compounds on VEGFR2, FGFR1 and PDGFRB.
(§2) Recombinant human VEGFR2 and FGFR1 proteases were purchased from Life technology, PDGFRB Protease was purchased from Millipore.
(§3) Z-LYTE™ Kit Tyr1 and Tyr4 were purchased from Life technology. Multi-microplate reader, Envision (PerkinElmer) read board was used.
(§4) The test compounds were diluted 3 times with a concentration gradient, the final concentration was from 10 μM to 0.17 nM with a total of 11 concentrations, and each concentration had two parallel holes; the content of DMSO in the assay was 1%.
(§5) 40 nM PDGFRB protein kinase, 2 μM Tyr4 peptide, 100 μM ATP, 50 mM HEPES (pH 7.5), 10 mM MgCl2, 1 mM EGTA, 0.01% BRIJ-35, 2 mM MnCl2, 1 mM DTT. The detector plate was Black Proxiplate 384-Plus plate (PerkinElmer), the reaction was performed at room temperature for 60 minutes, and the reaction system was 10 μl.
(§6) The reaction was stopped by adding 5 μl of DV reagent B (1:128) to the kinase reaction solution and incubated at 23° C. for 60 minutes. The Envision instrument was used to read the plate.
(§7) The data was converted to phosphorylation rate and inhibition rate and the 4 parameter curve fitting (Model 205 in XLFIT5, iDBS) was used to get IC50 data of the compounds.

FGFR1 = biological target: T2, FGFR1 (Homo sapiens, UniProt P11362); experiment: Z'-LYTE in vitro enzyme activity assay, FGFR1; conditions: 25 μM ATP, 60 minutes, room temperature; read-out: IC50 detected by Z'-LYTE, FGFR1
T2 construct: purchased Life technology
Description: as §1, §2, §3, §4
as §5, with “1” for “40”, “FGFR1” for “PDGFRB”, “25” for “100”
as §6, §7

VEGFR2 = biological target: T3, VEGFR2 (Homo sapiens, UniProt P35968); experiment: Z'-LYTE in vitro enzyme activity assay, VEGFR2; conditions: 100 μM ATP, 60 minutes, room temperature; read-out: IC50 detected by Z'-LYTE, VEGFR2
T3 construct: purchased Life technology
Description: as §1, §2, §3, §4
3 nM VEGFR2 protein kinase, 2 μM Tyr1 peptide, 100 μM ATP, 50 mM HEPES (pH 7.5), 10 mM MgCl2, 1 mM EGTA, 0.01% BRIJ-35. The detector plate was Black Proxiplate 384-Plus plate (PerkinElmer), the reaction was performed at room temperature for 60 minutes, and the reaction system was 10 μl.
as §6, §7

T2 sequence (P11362 22-822): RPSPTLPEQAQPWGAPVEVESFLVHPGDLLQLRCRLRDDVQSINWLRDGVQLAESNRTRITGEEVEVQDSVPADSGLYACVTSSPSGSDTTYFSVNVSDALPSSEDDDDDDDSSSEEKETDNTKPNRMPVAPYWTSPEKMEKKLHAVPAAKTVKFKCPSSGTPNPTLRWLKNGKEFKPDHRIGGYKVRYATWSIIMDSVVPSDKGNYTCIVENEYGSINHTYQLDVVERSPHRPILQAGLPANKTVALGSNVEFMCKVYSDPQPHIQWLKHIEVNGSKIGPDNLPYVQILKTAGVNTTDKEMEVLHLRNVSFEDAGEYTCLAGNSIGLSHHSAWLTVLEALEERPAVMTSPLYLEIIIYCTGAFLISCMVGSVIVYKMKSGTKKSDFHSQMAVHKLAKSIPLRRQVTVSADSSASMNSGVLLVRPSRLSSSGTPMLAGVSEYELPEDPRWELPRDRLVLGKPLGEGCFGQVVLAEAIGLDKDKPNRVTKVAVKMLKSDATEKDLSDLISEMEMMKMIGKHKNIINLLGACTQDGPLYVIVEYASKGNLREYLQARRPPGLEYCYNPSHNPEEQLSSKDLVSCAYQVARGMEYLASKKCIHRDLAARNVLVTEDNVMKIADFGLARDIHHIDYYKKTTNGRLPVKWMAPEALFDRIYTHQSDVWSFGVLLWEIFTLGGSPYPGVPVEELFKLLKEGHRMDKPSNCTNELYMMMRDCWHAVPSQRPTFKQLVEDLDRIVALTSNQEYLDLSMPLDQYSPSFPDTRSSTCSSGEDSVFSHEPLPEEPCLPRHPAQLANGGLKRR
T1 sequence (P09619 33-1106): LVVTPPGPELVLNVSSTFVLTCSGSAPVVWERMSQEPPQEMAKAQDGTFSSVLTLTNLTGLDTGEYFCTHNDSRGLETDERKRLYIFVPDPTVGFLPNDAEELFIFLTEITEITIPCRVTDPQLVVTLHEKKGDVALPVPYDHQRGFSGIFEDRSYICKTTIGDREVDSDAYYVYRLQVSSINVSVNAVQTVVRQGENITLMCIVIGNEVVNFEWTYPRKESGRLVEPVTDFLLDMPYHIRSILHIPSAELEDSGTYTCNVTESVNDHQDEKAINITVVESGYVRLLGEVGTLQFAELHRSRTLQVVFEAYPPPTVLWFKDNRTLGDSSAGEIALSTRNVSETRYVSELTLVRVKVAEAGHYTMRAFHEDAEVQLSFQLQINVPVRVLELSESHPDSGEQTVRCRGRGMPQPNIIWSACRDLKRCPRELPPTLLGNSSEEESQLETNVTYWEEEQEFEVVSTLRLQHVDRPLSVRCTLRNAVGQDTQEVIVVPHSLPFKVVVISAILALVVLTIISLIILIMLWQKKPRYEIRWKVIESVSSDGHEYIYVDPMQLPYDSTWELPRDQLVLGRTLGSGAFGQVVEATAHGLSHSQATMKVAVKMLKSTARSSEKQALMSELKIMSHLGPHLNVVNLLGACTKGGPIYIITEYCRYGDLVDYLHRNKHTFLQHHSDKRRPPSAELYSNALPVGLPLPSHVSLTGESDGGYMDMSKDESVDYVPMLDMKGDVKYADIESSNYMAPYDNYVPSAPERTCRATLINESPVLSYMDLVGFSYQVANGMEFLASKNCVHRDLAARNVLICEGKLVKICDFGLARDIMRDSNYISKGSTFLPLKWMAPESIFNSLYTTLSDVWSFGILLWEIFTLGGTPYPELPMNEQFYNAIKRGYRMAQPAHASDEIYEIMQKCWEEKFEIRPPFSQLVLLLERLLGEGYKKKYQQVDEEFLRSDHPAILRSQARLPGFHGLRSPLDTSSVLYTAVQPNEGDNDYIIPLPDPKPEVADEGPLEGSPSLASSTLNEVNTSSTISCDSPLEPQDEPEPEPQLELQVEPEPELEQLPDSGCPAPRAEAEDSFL
T3 sequence (P35968 20-1356): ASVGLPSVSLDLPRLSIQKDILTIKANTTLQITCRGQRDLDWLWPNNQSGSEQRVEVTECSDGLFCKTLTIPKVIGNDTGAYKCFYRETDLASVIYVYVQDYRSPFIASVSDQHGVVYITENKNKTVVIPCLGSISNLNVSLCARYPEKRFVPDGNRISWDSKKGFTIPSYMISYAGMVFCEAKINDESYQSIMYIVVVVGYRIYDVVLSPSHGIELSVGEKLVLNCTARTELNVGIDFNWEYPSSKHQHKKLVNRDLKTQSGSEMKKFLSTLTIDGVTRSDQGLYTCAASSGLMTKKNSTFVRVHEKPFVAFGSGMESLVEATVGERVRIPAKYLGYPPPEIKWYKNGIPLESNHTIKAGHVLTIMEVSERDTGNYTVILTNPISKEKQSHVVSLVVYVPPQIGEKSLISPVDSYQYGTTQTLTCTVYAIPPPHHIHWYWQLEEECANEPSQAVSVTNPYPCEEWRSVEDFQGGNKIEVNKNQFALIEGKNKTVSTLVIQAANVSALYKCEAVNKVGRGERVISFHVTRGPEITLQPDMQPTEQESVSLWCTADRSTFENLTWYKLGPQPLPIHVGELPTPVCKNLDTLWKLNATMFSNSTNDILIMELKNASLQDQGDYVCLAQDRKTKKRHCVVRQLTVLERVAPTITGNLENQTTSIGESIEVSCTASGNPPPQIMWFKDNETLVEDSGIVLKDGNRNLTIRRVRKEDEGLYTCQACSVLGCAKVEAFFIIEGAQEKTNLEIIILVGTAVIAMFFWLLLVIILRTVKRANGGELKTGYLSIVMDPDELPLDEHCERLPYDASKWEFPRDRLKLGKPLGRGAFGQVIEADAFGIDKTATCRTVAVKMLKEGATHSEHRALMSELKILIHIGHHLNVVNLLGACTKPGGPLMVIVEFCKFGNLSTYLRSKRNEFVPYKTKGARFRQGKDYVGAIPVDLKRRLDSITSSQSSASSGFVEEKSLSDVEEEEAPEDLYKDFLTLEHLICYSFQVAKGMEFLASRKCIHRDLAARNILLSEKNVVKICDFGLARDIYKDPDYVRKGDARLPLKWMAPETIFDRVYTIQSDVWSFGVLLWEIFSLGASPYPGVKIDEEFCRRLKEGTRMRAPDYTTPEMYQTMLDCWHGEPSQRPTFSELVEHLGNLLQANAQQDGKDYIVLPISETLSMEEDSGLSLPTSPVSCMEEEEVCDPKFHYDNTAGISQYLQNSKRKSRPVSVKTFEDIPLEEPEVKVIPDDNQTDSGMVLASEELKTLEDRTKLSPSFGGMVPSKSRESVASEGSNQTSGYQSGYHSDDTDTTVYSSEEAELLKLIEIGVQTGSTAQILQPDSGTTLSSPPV

SMILES | pIC50 (PDGFRB) | pIC50 (FGFR1) | pIC50 (VEGFR2)
COc1cc2nccc(Oc3ccc(NC(=O)N4CC(F)C4)c(Cl)c3F)c2cc1C(N)=O [Example 122] | > 7.30 | 6.00 to 6.70 | 6.70 to 7.30
COc1cc2nccc(Oc3ccc(Nc4c(NCCN(C)C)c(=O)c4=O)c(Cl)c3)c2cc1C(N)=O [Example 136] | 6.00 to 6.70 | 6.00 to 6.70 | 6.00 to 6.70
COc1cc2nccc(Oc3ccc(Nc4c(NCCC#N)c(=O)c4=O)c(Cl)c3)c2cc1C(N)=O [Example 137] | 6.00 to 6.70 | 6.00 to 6.70 | 6.00 to 6.70
COc1cc2nccc(Oc3ccc(Nc4c(NCC(F)(F)F)c(=O)c4=O)c(Cl)c3)c2cc1C(N)=O [Example 138] | 6.00 to 6.70 | 6.00 to 6.70 | 6.00 to 6.70
COc1cc2nccc(Oc3ccc(Nc4c(NC5CCOCC5)c(=O)c4=O)c(Cl)c3)c2cc1C(N)=O [Example 139] | 6.00 to 6.70 | 6.00 to 6.70 | 6.00 to 6.70
CCCNc1c(Nc2ccc(Oc3ccnc4cc(OC)c(C(N)=O)cc34)cc2Cl)c(=O)c1=O [Example 140] | 6.00 to 6.70 | 6.00 to 6.70 | 6.00 to 6.70
COCCCNc1c(Nc2ccc(Oc3ccnc4cc(OC)c(C(N)=O)cc34)cc2Cl)c(=O)c1=O [Example 141] | 6.00 to 6.70 | 6.00 to 6.70 | 6.00 to 6.70
COc1cc2nccc(Oc3ccc(Nc4c(NCC(C)C)c(=O)c4=O)c(Cl)c3)c2cc1C(N)=O [Example 144] | 6.00 to 6.70 | 6.00 to 6.70 | 6.00 to 6.70
COc1cc2nccc(Oc3ccc(Nc4c(NC5CCC5)c(=O)c4=O)c(Cl)c3)c2cc1C(N)=O [Example 145] | > 7.30 | 6.00 to 6.70 | 6.00 to 6.70
COc1cc2nccc(Oc3ccc(Nc4c(Nc5cccnc5)c(=O)c4=O)c(Cl)c3)c2cc1C(N)=O [Example 147] | 6.00 to 6.70 | 6.00 to 6.70 | 6.00 to 6.70
COc1cc2nccc(Oc3ccc(Nc4c(NCc5ccccc5)c(=O)c4=O)c(Cl)c3)c2cc1C(N)=O [Example 148] | > 7.30 | 6.00 to 6.70 | 6.00 to 6.70
COc1cc2nccc(Oc3ccc(Nc4c(NCc5cccnc5)c(=O)c4=O)c(Cl)c3)c2cc1C(N)=O [Example 149] | 6.00 to 6.70 | 6.00 to 6.70 | 6.00 to 6.70
COc1cc2nccc(Oc3ccc(Nc4c(NCc5ccccn5)c(=O)c4=O)c(Cl)c3)c2cc1C(N)=O [Example 150] | > 7.30 | 6.00 to 6.70 | 6.00 to 6.70
COc1cc2nccc(Oc3ccc(Nc4c(NCc5ccc(Cl)cc5)c(=O)c4=O)c(Cl)c3)c2cc1C(N)=O [Example 151] | > 7.30 | 6.00 to 6.70 | 6.00 to 6.70
COc1cc2nccc(Oc3ccc(Nc4c(NCc5ccncc5)c(=O)c4=O)c(Cl)c3)c2cc1C(N)=O [Example 153] | 6.00 to 6.70 | 6.00 to 6.70 | 6.00 to 6.70
COc1cc2nccc(Oc3ccc(Nc4c(NCCc5ccccc5)c(=O)c4=O)c(Cl)c3)c2cc1C(N)=O [Example 154] | 6.00 to 6.70 | 6.00 to 6.70 | 6.00 to 6.70
COc1cc2nccc(Oc3ccc(Nc4c(Nc5cccc(C(F)(F)F)c5)c(=O)c4=O)c(Cl)c3)c2cc1C(N)=O [Example 155] | > 7.30 | 6.00 to 6.70 | 6.00 to 6.70
COc1cc2nccc(Oc3ccc4nc(NCC(C)C)sc4c3)c2cc1C(N)=O [Example 156] | 6.00 to 6.70 | 6.00 to 6.70 | 6.00 to 6.70
COc1cc2nccc(Oc3ccc4nc(NCC(F)F)sc4c3)c2cc1C(N)=O [Example 157] | 6.00 to 6.70 | 6.00 to 6.70 | 6.00 to 6.70
COc1cc2nccc(Oc3ccc4nc(NC5CCC5)sc4c3)c2cc1C(N)=O [Example 158] | 6.00 to 6.70 | 6.00 to 6.70 | 6.00 to 6.70
COc1cc2nccc(Oc3ccc4nc(NCc5cccc(C(F)(F)F)c5)sc4c3)c2cc1C(N)=O [Example 161] | 6.00 to 6.70 | 6.00 to 6.70 | 6.00 to 6.70
COc1cc2nccc(Oc3ccc4[nH]cc(C#N)c4c3)c2cc1C(N)=O [Example 162] | 6.00 to 6.70 | 6.00 to 6.70 | 6.00 to 6.70
COc1cc2nccc(Oc3ccc4c(c3)CN(CC(F)F)C(=O)N4)c2cc1C(N)=O [Example 164] | 6.00 to 6.70 | 6.00 to 6.70 | 6.00 to 6.70
